Test results reported in article PMC10762068, “Selective blockade of Cav1.2 (α1C) versus Cav1.3 (α1D) L-type calcium channels by the black mamba toxin calciseptine” (Nature Communications, 2024).
Positions of bridges follow the written chain, without caps; N, C: chain ends. No end group written: not given here.

Key:
Cav1.3_42a = assay: Whole cell recording of ICav1.3-42a in HEK-293T cells; type: cell-based; conditions: for L-type Ca2+ current density: mean ± SEM, n=9
Method: HEK-293T (RRID:CVCL_2737) were obtained from the European Collection of Authenticated Cell Cultures (ECACC 96121229). The identity of HEK-293T has been confirmed by STR profiling and the cells have been eradicated from mycoplasma at ECACC. We routinely tested the cells for the absence of the mycoplasma contamination. Cells were cultivated at 37 °C in DMEM supplemented with GlutaMax, 10% fetal bovine serum and 1% penicillin/streptomycin (Invitrogen, Fisher Scientific, France). Transfections were performed using jet-PEI (Ozyme, France) with a DNA mix containing either the plasmids that code for Cav1.2-GFP, β2a and α2δ (0.8 µg of each) or either the plasmids that code for Cav1.3 (with and without exon 42a), or Cav2.1, or either Cav2.2 combined with β2a and α2δ (0.8 µg of each supplemented with 0.025 µg of a plasmid coding for GFP). For Cav3.1 expression β2a and α2δ subunits were omitted. Plasmids coding for β2a, α2δ and Cav1.3 were created as described previously. Plasmid coding for Cav1.2-GFP was obtained from Dr. Catalucci[60]. After transfection cells were placed at 30 °C for 2–3 days and dissociated with Versene (Invitrogen, Fisher Scientific, France) and plated at a density of ~35 × 10^3 cells per 35 mm Petri dish for electrophysiological recordings, which were performed the following day.
Macroscopic currents in HEK-293T cells were recorded at room temperature using an Axopatch 200B or Multiclamp 700B patchclamp amplifier (Molecular Devices, Sunnyvale CA). […] The extracellular solution contained (in mM): 135 NaCl, 20 TEACl, 5 BaCl2, 1 MgCl2, and 10 HEPES (pH adjusted to 7.25 with KOH, ~330 mOsm).
(§1) In all experiments of cellular electrophysiology, we employed synthetized analog of Cas, commercially available at Latoxan (ID: L8109). The native peptide was purified from the venom of Dendroaspis polylepis purchased from Latoxan, as previoulsly described. The pure peptide was obtained after gel filtration, cation exchange and C18 reversed phase chromatography. Its measured molecular mass (7036.26 Da average) was in accordance with the mass calculated from sequence data (7036.22 Da).

[1] = test system: total ICaL (ICav1.2+ICav1.3) in SAN myocytes from wild-type mice; assay: ICaL, patch clamp, SAN myocytes from wild-type mice; type: cell-based, mouse; conditions: for L-type Ca2+ current density: Cas 1 µM alone or + Nife 3 µM, n=8
Method: Hearts from Wild-Type and Cav1.3^−/− mice were removed under general anesthesia consisting of 0.01 mg/g xylazine (2% Rompun; Bayer AG) and 0.1 mg/g ketamine (Imalgène;Merial) and immersed in a pre-warmed (36 °C) Tyrode solution containing (mM): 140 NaCl, 5.4 KCl, 1 MgCl2, 1.8 CaCl2, 5.5 D-glucose, and 5 Hepes (adjusted to pH 7.4 with NaOH). […] SAN tissue was excised and transferred into a low-Ca^2+ solution containing (mM): 140 NaCl, 5.4 KCl, 0.5 MgCl2, 0.2 CaCl2, 1.2 KH2PO4, 50 taurine, 5.5 D-glucose, 1 mg/mL BSA, and 5 Hepes–NaOH (adjusted to pH 6.9 with NaOH) for 5 min. Then, enzymatic digestion was carried out for 20-25 min at 36 °C in the low-Ca^2+ solution containing LiberaseTH Research Grade (0.15 mg/mL; Roche, Mannheim, Germany) and elastase (0.5 mg/mL; Worthington, Lakewood, NJ, USA). Digestion was stopped by washing the SAN in a “Kraftbrühe” (KB) medium containing (mM) 100 K-glutamate, 10 K-aspartate, 25 KCl, 10 KH2PO4, 2 MgSO4, 20 taurine, 5 creatine, 0.5 EGTA, 20 D-glucose, 5 Hepes, and 1 mg/mL BSA (adjusted to pH 7.2 with KOH). Single SAN cells were then dissociated from the SAN tissue by manual agitation using a flame-forged Pasteur’s pipette. To recover the automaticity of the SAN cells, Ca^2+ was gradually reintroduced in the cell’s storage solution to a final concentration of 1.8 mM. SAN cells were then left to rest for 1 h before recordings.
For patch-clamp recordings of SAN myocytes, cells were harvested in custom-made chambers with glass bottoms for cell attachment. Cells were then super-fused with Tyrode’s solution warmed at 36 °C before recording. Action potentials and ionic currents were recorded using an Axon multi-clamp patch-clamp 700B amplifier. Voltage-gated L-type Ca^2+ currents (ICaL) were recorded using standard whole cell patch-clamp configuration. For recording ICaL, we used an extracellular recording solution contained (mM): 135 tetraethylammonium chloride (TEA-Cl), 10 4-aminopyridine (4-AP), 1 MgCl2, 0.03 tetrodotoxin (TTX), 1 g/L Glucose, 2 CaCl2, 10 Hepes, (adjusted to pH = 7.2 with TEAOH). […] Pacemaker activity was recorded by the perforated patch-clamp technique using escin (40 µg/ml). For recording cell automaticity glass pipettes were filled with the intracellular solution contained (mM): 80 K-Aspartate, 50 KCl, 1 MgCl2, 5 HEPES, 2 CaCl2, 5 EGTA, 3 ATP-Na+ salt; pH was adjusted to 7.2 with KOH. Escin was dissolved in sterile H2O and added to the intracellular solution right before each experiment.
as §1

RICYIHKASLPRATKTCVENTCYKMFIRTQREYISERGCGCPTAMWPYQTECCKGDRCNK (disulfide 3-22, 17-39, 41-52, 53-58 (inferred)) [Cas, calciseptine]
effect on ICav1.3-42a (I-V relationship) (Cav1.3_42a; Cas 300 nM, all voltages tested, at peak p = 0.8148, n=9/N=4): no significant effect
L-type Ca2+ current density (Cav1.3_42a; Cas 300 nM, 0 mV, Ctrl -20.06± 5.37): -19.52± 4.21 pA/pF
L-type Ca2+ current density (Cav1.3_42a; Cas 300 nM, +10 mV, Ctrl -13.99± 3.71): -13.16± 2.99 pA/pF
L-type Ca2+ current density (Cav1.3_42a; Cas 300 nM, +20 mV, Ctrl -7.80± 2.21): -6.44± 1.89 pA/pF
L-type Ca2+ current density (Cav1.3_42a; Cas 300 nM, +30 mV, Ctrl -2.75± 1.09): -1.13± 1.30 pA/pF
L-type Ca2+ current density (Cav1.3_42a; Cas 300 nM, -10 mV, Ctrl -24.04± 6.83): -23.42± 5.08 pA/pF
L-type Ca2+ current density (Cav1.3_42a; Cas 300 nM, -20 mV, Ctrl -21.97± 6.85): -21.55± 4.86 pA/pF
reduction of ICav1.3-42a (Cav1.3_42a; all concentrations tested (up to 1 µM), holding −60 mV, step 0 mV, 300 nM n=13/N=4, 1 µM n=8/N=4): did not record a statistically significant reduction
L-type Ca2+ current density ([1]; 0 mV, Ctrl -8.45± 1.02): -3.87± 0.71 pA/pF
L-type Ca2+ current density ([1]; +20 mV, Ctrl -5.09± 0.81): -1.53± 0.56 pA/pF
L-type Ca2+ current density ([1]; -10 mV, Ctrl -8.20± 1.10): -4.24± 0.77 pA/pF
L-type Ca2+ current density ([1]; -20 mV, Ctrl -5.61± 0.91): -3.37± 0.54 pA/pF
L-type Ca2+ current density ([1]; -25 mV, Ctrl -3.96± 0.71): -2.46± 0.48 pA/pF
L-type Ca2+ current density ([1]; -30 mV, Ctrl -2.44± 0.47): -1.49± 0.38 pA/pF
L-type Ca2+ current density ([1]; -35 mV, Ctrl -1.18± 0.29): -0.90± 0.24 pA/pF
reduction of total ICaL ([1]; Wild-Type SAN myocytes, voltage clamp): around 45%
